{"source": "patent US20260250290A1", "about": "(BRISTOL-MYERS SQUIBB COMPANY, priority 2023, published 2026)", "note": "Counter-ions that a name gives are not always drawn."}
{"target": "T1, full length SGK1 (Homo sapiens, UniProt O00141)", "T1 construct": "125 μM full length SGK1 (Life Technologies Part #PR7358A); purchased Life Technologies PR7358A", "T1 sequence (O00141 1-431)": "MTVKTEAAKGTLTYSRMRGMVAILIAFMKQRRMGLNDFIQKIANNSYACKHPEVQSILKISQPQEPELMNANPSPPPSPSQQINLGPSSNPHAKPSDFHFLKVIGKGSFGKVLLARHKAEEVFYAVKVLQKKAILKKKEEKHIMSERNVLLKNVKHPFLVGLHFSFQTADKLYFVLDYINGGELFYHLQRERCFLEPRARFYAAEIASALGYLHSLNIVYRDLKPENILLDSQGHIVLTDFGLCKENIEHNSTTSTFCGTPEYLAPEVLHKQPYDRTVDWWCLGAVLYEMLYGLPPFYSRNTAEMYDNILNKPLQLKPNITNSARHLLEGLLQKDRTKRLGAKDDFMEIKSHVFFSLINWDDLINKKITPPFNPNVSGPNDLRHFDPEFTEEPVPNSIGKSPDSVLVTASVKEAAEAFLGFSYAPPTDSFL", "experiment": "SGK1 inhibition Assay A (Caliper LabChip electrophoretic separation of fluorescent peptide substrate and phosphorylated product)", "format": "biochemical", "conditions": "Assay A; 20 μM ATP, 40 min incubation; read-out: SGK1 IC50", "units": {"IC50": "nM"}}
{"smiles": "CC(=O)N1CC=C(c2cc(N3CCC[C@@H](NC(=O)c4cccc(N5CC[C@H](O)C5)n4)C3)c3c(N)ncnn23)C1", "note": "[Example 779, N-((R)-1-(7-(1-acetyl-2,5-dihydro-1H-pyrrol-3-yl)-4-aminopyrrolo[2,1-f][1,2,4]triazin-5-yl)piperidin-3-yl)-6-((S)-3-hydroxypyrrolidin-1-yl)picolinamide]", "IC50": 33}
{"smiles": "CC(=O)N1CC=C(c2cc(N3CCC[C@@H](NC(=O)c4cccc(NCC5CN(C)C5)n4)C3)c3c(N)ncnn23)C1", "note": "[Example 780, (R)-N-(1-(7-(1-acetyl-2,5-dihydro-1H-pyrrol-3-yl)-4-aminopyrrolo[2,1-f][1,2,4]triazin-5-yl)piperidin-3-yl)-6-(((1-methylazetidin-3-yl)methyl)amino)picolinamide]", "IC50": 25}
{"smiles": "CC(=O)N1CC=C(c2cc(N3CCC[C@@H](NC(=O)c4cccc(N5CC6(C5)CN(C(C)C)C6)n4)C3)c3c(N)ncnn23)C1", "note": "[Example 781, (R)-N-(1-(7-(1-acetyl-2,5-dihydro-1H-pyrrol-3-yl)-4-aminopyrrolo[2,1-f][1,2,4]triazin-5-yl)piperidin-3-yl)-6-(6-isopropyl-2,6-diazaspiro[3.3]heptan-2-yl)picolinamide]", "IC50": 5}
{"smiles": "CC(=O)N1CC=C(c2cc(N3CCC[C@@H](NC(=O)c4cccc(N5CC6(CN(C)C6)C5)n4)C3)c3c(N)ncnn23)C1", "note": "[Example 784, (R)-N-(1-(7-(1-acetyl-2,5-dihydro-1H-pyrrol-3-yl)-4-aminopyrrolo[2,1-f][1,2,4]triazin-5-yl)piperidin-3-yl)-6-(6-methyl-2,6-diazaspiro[3.3]heptan-2-yl)picolinamide]", "IC50": 20}
{"smiles": "CN1CCN(c2cccc(C(=O)N[C@@H]3CCCN(c4cc(-c5ccc(C#N)nc5)n5ncnc(N)c45)C3)n2)CC1", "note": "[Example 785, (R)—N-(1-(4-amino-7-(6-cyanopyridin-3-yl)pyrrolo[2,1-f][1,2,4]triazin-5-yl)piperidin-3-yl)-6-(4-methylpiperazin-1-yl)picolinamide]", "IC50": 7}
{"smiles": "COc1cc(-c2cc(N3CCC[C@@H](NC(=O)c4cccc(N5CCN(C)CC5)n4)C3)c3c(N)ncnn23)ccn1", "note": "[Example 786, (R)-N-(1-(4-amino-7-(2-methoxypyridin-4-yl)pyrrolo[2,1-f][1,2,4]triazin-5-yl)piperidin-3-yl)-6-(4-methylpiperazin-1-yl)picolinamide]", "IC50": 6}
{"smiles": "CN1CCN(c2cccc(C(=O)N[C@@H]3CCCN(c4cc(-c5cncnc5)n5ncnc(N)c45)C3)n2)CC1", "note": "[Example 787, (R)-N-(1-(4-amino-7-(pyrimidin-5-yl)pyrrolo[2,1-f][1,2,4]triazin-5-yl)piperidin-3-yl)-6-(4-methylpiperazin-1-yl)picolinamide]", "IC50": 77}
{"smiles": "COc1ncc(-c2cc(N3CCC[C@@H](NC(=O)c4cccc(N5CCN(C)CC5)n4)C3)c3c(N)ncnn23)cn1", "note": "[Example 788, (R)-N-(1-(4-amino-7-(2-methoxypyrimidin-5-yl)pyrrolo[2,1-f][1,2,4]triazin-5-yl)piperidin-3-yl)-6-(4-methylpiperazin-1-yl)picolinamide]", "IC50": 434}
{"smiles": "CC(=O)c1ncc(-c2cc(N3CCC[C@@H](NC(=O)c4cccc(N5CCN(C)CC5)n4)C3)c3c(N)ncnn23)s1", "note": "[Example 791, (R)-N-(1-(7-(2-acetylthiazol-5-yl)-4-aminopyrrolo[2,1-f][1,2,4]triazin-5-yl)piperidin-3-yl)-6-(4-methylpiperazin-1-yl)picolinamide]", "IC50": 15}
{"smiles": "CC(C)n1cc(-c2cc(N3CCC[C@@H](NC(=O)c4cccc(N5CCN(C)CC5)n4)C3)c3c(N)ncnn23)ccc1=O", "note": "[Example 792, (R)-N-(1-(4-amino-7-(1-isopropyl-6-oxo-1,6-dihydropyridin-3-yl)pyrrolo[2,1-f][1,2,4]triazin-5-yl)piperidin-3-yl)-6-(4-methylpiperazin-1-yl)picolinamide]", "IC50": 29}
{"smiles": "CN1CCN(c2cccc(C(=O)N[C@@H]3CCCN(c4cc(-c5ccnn5C)n5ncnc(N)c45)C3)n2)CC1", "note": "[Example 795, (R)-N-(1-(4-amino-7-(1-methyl-1H-pyrazol-5-yl)pyrrolo[2,1-f][1,2,4]triazin-5-yl)piperidin-3-yl)-6-(4-methylpiperazin-1-yl)picolinamide]", "IC50": 88}
{"smiles": "CC(C)n1nccc1-c1cc(N2CCC[C@@H](NC(=O)c3cccc(N4CCN(C)CC4)n3)C2)c2c(N)ncnn12", "note": "[Example 796, (R)-N-(1-(4-amino-7-(1-isopropyl-1H-pyrazol-5-yl)pyrrolo[2,1-f][1,2,4]triazin-5-yl)piperidin-3-yl)-6-(4-methylpiperazin-1-yl)picolinamide]", "IC50": 785}
{"smiles": "CN1CCN(c2cccc(C(=O)N[C@@H]3CCCN(c4cc(-c5ccc(=O)n(C)c5)n5ncnc(N)c45)C3)n2)CC1", "note": "[Example 797, (R)-N-(1-(4-amino-7-(1-methyl-6-oxo-1,6-dihydropyridin-3-yl)pyrrolo[2,1-f][1,2,4]triazin-5-yl)piperidin-3-yl)-6-(4-methylpiperazin-1-yl)picolinamide]", "IC50": 13}
{"smiles": "CN1CCN(c2cccc(C(=O)N[C@@H]3CCCN(c4cc(-c5ccc(=O)[nH]c5)n5ncnc(N)c45)C3)n2)CC1", "note": "[Example 798, (R)-N-(1-(4-amino-7-(6-oxo-1,6-dihydropyridin-3-yl)pyrrolo[2,1-f][1,2,4]triazin-5-yl)piperidin-3-yl)-6-(4-methylpiperazin-1-yl)picolinamide]", "IC50": 21}
{"smiles": "CCn1cc(-c2cc(N3CCC[C@@H](NC(=O)c4cccc(N5CCN(C)CC5)n4)C3)c3c(N)ncnn23)ccc1=O", "note": "[Example 799, (R)-N-(1-(4-amino-7-(1-ethyl-6-oxo-1,6-dihydropyridin-3-yl)pyrrolo[2,1-f][1,2,4]triazin-5-yl)piperidin-3-yl)-6-(4-methylpiperazine-1-yl)picolinamide]", "IC50": 3}
{"smiles": "CN1CCN(c2cccc(C(=O)N[C@@H]3CCCN(c4cc(-c5ccc(-n6cncn6)nc5)n5ncnc(N)c45)C3)n2)CC1", "note": "[Example 800, (R)-N-(1-(7-(6-(1H-1,2,4-triazol-1-yl)pyridin-3-yl)-4-aminopyrrolo[2,1-f][1,2,4]triazin-5-yl)piperidin-3-yl)-6-(4-methylpiperazin-1-yl)picolinamide]", "IC50": 17}
{"smiles": "CC(=O)c1ccc(-c2cc(N3CCC[C@@H](NC(=O)c4cccc(N5CCN(C)CC5)n4)C3)c3c(N)ncnn23)cc1", "note": "[Example 801, (R)-N-(1-(7-(4-acetylphenyl)-4-aminopyrrolo[2,1-f][1,2,4]triazin-5-yl)piperidin-3-yl)-6-(4-methylpiperazin-1-yl)picolinamide]", "IC50": 26}
{"smiles": "CN1CCN(c2cccc(C(=O)N[C@@H]3CCCN(c4cc(-c5ccn(C)c(=O)c5)n5ncnc(N)c45)C3)n2)CC1", "note": "[Example 802, (R)-N-(1-(4-amino-7-(1-methyl-2-oxo-1,2-dihydropyridin-4-yl)pyrrolo[2,1-f][1,2,4]triazin-5-yl)piperidin-3-yl)-6-(4-methylpiperazin-1-yl)picolinamide]", "IC50": 237}
{"smiles": "CN1CCN(c2cccc(C(=O)N[C@@H]3CCCN(c4cc(-c5cnn(C6CCOC6)c5)n5ncnc(N)c45)C3)n2)CC1", "note": "(stereo partly drawn) [Example 803, N-((3R)-1-(4-amino-7-(1-(tetrahydrofuran-3-yl)-1H-pyrazol-4-yl)pyrrolo[2,1-f][1,2,4]triazin-5-yl)piperidin-3-yl)-6-(4-methylpiperazin-1-yl)picolinamide]", "IC50": 2050}
{"smiles": "COc1ccc(OC(=O)N[C@@H]2CCCN(c3cc(C4=CCN(C(C)=O)C4)n4ncnc(N)c34)C2)cc1", "note": "[Example 812, 4-methoxyphenyl (R)-(1-(7-(1-acetyl-2,5-dihydro-1H-pyrrol-3-yl)-4-aminopyrrolo[2,1-f][1,2,4]triazin-5-yl)piperidin-3-yl)carbamate TFA salt]", "IC50": 984}
{"smiles": "CC(=O)N1CC=C(c2cc(N3CCC[C@@H](NC(=O)c4cccc(N5CCNCC5)n4)C3)c3c(N)ncnn23)C1", "note": "[Example 813, (R)—N-(1-(7-(1-acetyl-2,5-dihydro-1H-pyrrol-3-yl)-4-aminopyrrolo[2,1-f][1,2,4]triazin-5-yl)piperidin-3-yl)-6-(piperazin-1-yl)picolinamide]", "IC50": 32}
{"smiles": "CC(=O)N1CC=C(c2cc(N3CCC[C@@H](NC(=O)c4cccc(N5C[C@H]6CC[C@@H](C5)N6)n4)C3)c3c(N)ncnn23)C1", "note": "[Example 814, N—((R)-1-(7-(1-acetyl-2,5-dihydro-1H-pyrrol-3-yl)-4-aminopyrrolo[2,1-f][1,2,4]triazin-5-yl)piperidin-3-yl)-6-((1R,5S)-3,8-diazabicyclo[3.2.1]octan-3-yl)picolinamide]", "IC50": 9}
{"smiles": "CC(=O)N1CC=C(c2cc(N3CCC[C@@H](NC(=O)c4cc5c(s4)CCNC5)C3)c3c(N)ncnn23)C1", "note": "[Example 815, (R)—N-(1-(7-(1-acetyl-2,5-dihydro-1H-pyrrol-3-yl)-4-aminopyrrolo[2,1-f][1,2,4]triazin-5-yl)piperidin-3-yl)-4,5,6,7-tetrahydrothieno[3,2-c]pyridine-2-carboxamide TFA salt]", "IC50": 104}
{"smiles": "C#Cc1cc(N2CCC[C@@H](NC(=O)c3ccc(Cl)s3)C2)c2c(N)ncnn12", "note": "[Example 862, (R)—N-(1-(4-amino-7-ethynylpyrrolo[2,1-f][1,2,4]triazin-5-yl)piperidin-3-yl)-5-chlorothiophene-2-carboxamide]", "IC50": 111}
{"smiles": "CC(C)(C)OC(=O)CCn1cc(-c2cc(N3CCC[C@@H](NC(=O)c4ccc(Cl)s4)C3)c3c(N)ncnn23)nn1", "note": "[Example 863, tert-butyl (R)-3-(4-(4-amino-5-(3-(5-chlorothiophene-2-carboxamido)piperidin-1-yl)pyrrolo[2,1-f][1,2,4]triazin-7-yl)-1H-1,2,3-triazol-1-yl)propanoate]", "IC50": 467}
